Results as given in patent publication EP0190496A2, “Piperidine derivatives having a gastro-intestinal activity” (BEECHAM GROUP PLC, priority 1984, dated 1986).
Where a name gives a salt, the structure may show the parent alone.

Each molecule was assayed on Cold restraint stress - induced gastric erosions (assay: Cold restraint stress-induced gastric erosions (antiulcer test)). Settings: Oral Dose 25 µmol/kg in 0.5% methylcellulose, 30 min before 2.5 hours at 4°C in restraint; mucosal damage scored visually; * p<0.05, ** p<0.01 (Wilcoxon).
Format: in vivo, Male Wistar rats
Procedure: Male Wistar rats, 175-225g bodyweight are used. Forty eight hours prior to testing, animals are placed in mesh-bottomed cages with 10-12 animals per cage. Twenty-four hours prior to testing, animals are placed in the dark at a temperature of l7 °C. Sixteen hours prior to testing, food is removed from the cages. Drugs are made up in 0.5% methylcellulose, and adminstered at a volume of 1.0ml/100g bodyweight. Eight rats per group are used, with usually 1 control group and 2 test groups. Animals are placed in Bollman type restraining cages and arranged in a vertical position. Thirty minutes after dosing the animals are placed in an ambient temperature of 4 °C for 2.5 hours. At the end of this time the rats are sacrificed, the stomachs removed, cut open and pinned out on cork boards. Mucosal damage is assessed visually and scored on a subjective scale. Statistical differences between control and test groups are assessed using a Wilcoxon Ranking Test.

Molecule | % Inhibition of gastric erosions
COc1ccccc1[C@@H]1CCN(Cc2ccccc2)C[C@H]1COc1ccc2c(c1)OCO2 (racemic) [Example 2, (±)trans 1-Benzyl-4-(2'-methoxyphenyl)-3-(3',4'-methylenedioxyphenoxymethyl)piperidine hydrochloride] | 58* %
Fc1ccc([C@@H]2CCN(Cc3ccccc3)C[C@H]2COc2ccc3c(c2)OCO3)cc1 (single isomer, unassigned) [Example 1, (-)-trans-l-Benzyl-4-(4'-fluorophenyl)-3-(3',4'-methylenedioxyphenoxymethyl)piperidine hydrochloride] | 53** %

Each molecule was assayed on ethanol-induced gastric mucosal erosive damage in the rat (assay: Inhibition of ethanol-induced gastric mucosal erosive damage (antiulcer test)). Settings: Oral Dose 25 µmol/kg, 90 min before 1 ml/rat p.o. absolute ethanol; stomach scored 10 min later; * p<0.05, ** p<0.01, *** p<0.001 (Mann-Whitney U-test).
Format: in vivo
Description: The object of the experiment was to test the ability of drugs to inhibit a state of gastric submucosal haemorrhage induced by absolute ethanol in the conscious rat.
The procedure used was as follows. Male rats, preferably Wistars, were fasted overnight in wire mesh bottom cages, so as to prevent copraphagy. Water was allowed ad. libitum. Six or seven rats per cage were regarded as suitable, and the weight range of the rats used was between 175 and 300g. Water was removed one hour prior to treatment. The rats were then randomly allocated to their respective treatment groups, so that there were no less than five rats per group. One control group was always included.
Each rat was pre-dosed with lml/100g of control or test drug, dissolved or suspended in 0.5% methyl cellulose or 1% Tween 80 in water, via an oral dosing needle. Ninety minutes later each rat was dosed with lml/rat p.o. of absolute ethanol. Ten minutes after the absolute ethanol, the rats were killed by an intracardiac injection of Expiral^*. The stomachs were excised, cut open along the greater curvature to expose the mucosal surface, washed in tap water to remove debris, then stretched on a cork board for examination.
A subjective macroscopic examination of the stomach was carried out with a damage score being allocated to each stomach. Two observers were usually used, one of whom scored the results in a 'blinded' manner. The results were then analysed by the Mann-Whitney U-test, with p<0.05 being regarded as statistically significant.
^*(sodium pentobarbitone solution 200mg/ml)

Molecule | % Inhibition of gastric erosions
(+) cis-l-(4'-Fluorobenzyl)-4-(4'-fluorophenyl)-3-(3', 4'-methylenedioxyphenoxymethyl)piperidine hydrochloride [Example 12] | 84.9** %
(+)cis-1-Benzyl-4-(4'-fluorophenyl)3-(3',4'-methylene- dioxyphenoxymethyl)piperidine hydrochloride [Example 7] | 63.1** %
(-) cis-l-(4'-Fluorobenzyl)-4-(4'-fluorophenyl)-3-(3', 4'-methylenedioxyphenoxymethyl)piperidine hydrochloride [Example 13] | 46** %
(-)cis-l-Benzyl-4-(4'-fluorophenyl)-3-(3',4'-methylene- dioxyphenoxymethyl)piperidine hydrochloride [Example 8] | 46.8* %

Same assay, conditions: Oral Dose 25 µmol/kg, 90 min before 1 ml/rat p.o. absolute ethanol; stomach scored 10 min later; * p<0.05, ** p<0.01, *** p<0.001 (Mann-Whitney U-test); read-out: % Inhibition of gastric erosions

Molecule | inhibition in vivo at 25 µmol/kg
COc1ccccc1[C@@H]1CCN(Cc2ccccc2)C[C@H]1COc1ccc2c(c1)OCO2 (racemic) [Example 2, (±)trans 1-Benzyl-4-(2'-methoxyphenyl)-3-(3',4'-methylenedioxyphenoxymethyl)piperidine hydrochloride] | 47.7%
Fc1ccc(C2=CCN(Cc3ccccc3)CC2COc2ccc3c(c2)OCO3)cc1 (racemic) [Example 11, (±)-1-Benzyl-4-(4'-fluorophenyl)-3-(3,4-methylenedioxy-phenoxymethyl)-1,2,3,6-tetrahydropyridine hydrochloride] | 26%
Cc1ccccc1[C@@H]1CCN(Cc2ccccc2)C[C@H]1COc1ccc2c(c1)OCO2 (racemic) [Example 17, (±)-trans-1-Benzyl-3-(3',4'-methylenedioxyphenoxy-methyl)-4-(2'-methylphenyl)piperidine hydrochloride] | 31%
Fc1ccc([C@@H]2CCN(Cc3ccccc3)C[C@H]2COc2ccc3c(c2)OCO3)cc1 (single isomer, unassigned) [Example 1, (-)-trans-l-Benzyl-4-(4'-fluorophenyl)-3-(3',4'-methylenedioxyphenoxymethyl)piperidine hydrochloride] | 66%
Fc1ccc(CN2CC[C@@H](c3ccc(F)cc3)[C@H](COc3ccc4c(c3)OCO4)C2)cc1 (single isomer, unassigned) [Example 9, (-) trans-l-(4'-fluorobenzyl)-4-(4'-fluorophenyl)-3-(3',4'-methylenedioxyphenoxymethyl)piperidine hydrochloride] | 71%
Fc1ccc([C@@H]2CCN(Cc3ccccc3F)C[C@H]2COc2ccc3c(c2)OCO3)cc1 (single isomer, unassigned) [Example 14, (-) trans-l-(2'-Fluorobenzyl)-4-(4'-fluorophenyl)-3-(3',4-methylenedioxyphenoxymethyl)piperidine hydrochloride] | 39%
c1ccc(CN2CC[C@@H](c3ccccc3)[C@H](COc3ccc4c(c3)OCO4)C2)cc1 (single isomer, unassigned) [Example 15, (-) trans-l-Benzyl-3-(3',4'-methylenedioxyphenoxy-methyl)-4-phenylpiperidine hydrochloride] | 67%
Fc1ccc(CN2CC[C@@H](c3ccccc3)[C@H](COc3ccc4c(c3)OCO4)C2)cc1 (single isomer, unassigned) [Example 16, (-) trans-l-(4'-Fluorobenzyl)-3-(3',4'-methylenedioxy-phenoxymethyl)-4-phenylpiperidine hydrochloride] | 83%
Fc1ccc(C2CCN(Cc3ccccc3)CC2COc2ccc3c(c2)OCO3)cc1 (single isomer, unassigned; (+)) [Example 5, (+)trans-l-Benzyl-4-(4'-fluorophenyl)-3-(3',4'-methylenedioxyphenoxymethyl)piperidine hydrochloride] | 30%

Same assay, conditions: Rattus norvegicus, po, read-out: % Inhibition of gastric erosions

Molecule | inhibition in vivo at 25 µmol/kg
Cc1ccc(OC[C@@H]2CN(Cc3ccccc3)CC[C@H]2c2ccc(F)cc2)cc1 (racemic) [Example 18, (±)-trans-1-Benzyl-4-(4'-fluorophenyl)-3-(4'-methylphenoxymethyl)piperidine maleate] | 21%
Cc1ccc(OC[C@@H]2CN(Cc3ccc(F)cc3)CC[C@H]2c2ccc(F)cc2)cc1 (racemic) [Example 19, (±)-trans-1-(4'-Fluorobenzyl)-4-(4'-fluorophenyl)-3-(4'-methylphenoxymethyl)piperidine maleate] | 69%
Fc1ccc(CN2CC[C@@H](c3ccc(F)cc3)[C@H](COc3ccccc3)C2)cc1 (racemic) [Example 20, (±)-trans-1-(4'-Fluorobenzyl)-4-(4'-fluorophenyl)-3-phenoxymethylpiperidine maleate] | 70%
Fc1ccc(OC[C@@H]2CN(Cc3ccccc3)CC[C@H]2c2ccc(F)cc2)cc1 (racemic) [Example 21, (±)-trans-1-Benzyl-3-(4'-fluorophenoxymethyl)-4-(4'-fluorophenyl)piperidine maleate] | 27%
Fc1ccc(CN2CC[C@@H](c3ccc(F)cc3)[C@H](COc3ccc(F)cc3)C2)cc1 (racemic) [Example 22, (±)-trans-1-(4'-Fluorobenzyl)-3-(4'-fluorophenoxy-methyl)-4-(4'-fluorophenyl)piperidine maleate] | 53%

These molecules were tested on Heidenhain pouch of the dog (assay: Gastro-intestinal motility: intraluminal pressure in the Heidenhain pouch). Settings: dose of 0.5mg/kg i.v., conscious fasted dog, chronic Heidenhain pouch.
Format: in vivo
Procedure: Pressure changes were recorded via a saline filled catheter inserted, with airtight closure, into the fistula of a chronic Heidenhain pouch of the previously fasted and lightly restrained conscious dog. The catheter was connected to a physiological pressure transducer and pressure changes recorded on a hot wire pen recorder. Compounds were administered when the motility was in a phase of relatively low activity and the dose range determined which induced an increase in the amplitude of rhythmical contractions for a period of at least 4-5 minutes.

Molecule | increase in the amplitude of rhythmical contractions for a period of at least 4-5 minutes
Fc1ccc([C@@H]2CCN(Cc3ccccc3)C[C@H]2COc2ccc3c(c2)OCO3)cc1 (single isomer, unassigned) [Example 1, (-)-trans-l-Benzyl-4-(4'-fluorophenyl)-3-(3',4'-methylenedioxyphenoxymethyl)piperidine hydrochloride] | active
